Results on eleven molecules are retold here after ChEMBL document CHEMBL1201862, “PubChem BioAssay data set” (2004).

As a reminder, the GI50 is the concentration at which growth is held to half of that of the control.

Among the test systems are MDA-N; TK-10; HCT-15; SR; A498; MOLT-4; UACC-257; KM12; UO-31; SNB-19; NCI-H522; HL-60; U-251; K562; RPMI-8226; LOX IMVI; CAKI-1; MCF7; COLO 205; OVCAR-4.
Common to all, as to assay: DTP human tumour cell line panel, 48 h

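In this assay, cells in 96-well plates receive the compound at five concentrations for 48 hours. Endpoints are linearly interpolated between the surrounding concentrations. GI50: concentration for 50% inhibition of growth.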 Calls of active or inactive are those of the source. No stated cut-off is given here; in the data, active = GI50 up to about 1.1 µM and inactive = higher.

On to `Cc1cc(Cl)nc(NC(=O)CSc2ccc(Cl)cc2)n1`, for which the GI50 was > 100 µM (inactive) in the experiment with MDA-N; > 100 µM (inactive) in the experiment with TK-10; over 100 µM with HCT-15; > 100 µM (inactive) in the experiment with SR; 72.9 µM (inactive) in the experiment on A498; > 100 µM (inactive) in the experiment with MOLT-4. Also, the GI50 is > 100 µM (inactive) in the experiment on UACC-257; > 100 µM (inactive) in the experiment with KM12; > 100 µM (inactive) in the experiment with UO-31; > 100 µM (inactive) with SNB-19; 95.7 µM (inactive) in the experiment on NCI-H522; > 100 µM (inactive) in the experiment with HL-60. Besides, the GI50 was > 100 µM (inactive) in the experiment on U-251, > 100 µM (inactive) in the experiment on K562, 38.6 µM (inactive) in the experiment with RPMI-8226 and > 100 µM (inactive) with LOX IMVI.

Regarding `Cc1nnc2n1N=C(c1cc(F)c(Cl)cc1Cl)/C(=C/c1ccc(Cl)cc1)S2`, the GI50 in the experiment with MDA-N was 15.8 µM (inactive); in the experiment on TK-10, 28.7 µM (inactive); in the experiment on HCT-15, 13.8 µM; in the experiment with CAKI-1 it was 10.1 µM (inactive); in the experiment on A498, 19.1 µM (inactive); with MOLT-4, 9.91 µM (inactive). Besides, the GI50 in the experiment with UACC-257 is 17 µM (inactive); with KM12, 12.8 µM (inactive); in the experiment with UO-31 it was 11.3 µM (inactive); in the experiment with SNB-19, 23.7 µM (inactive); in the experiment on NCI-H522 it was 20.7 µM (inactive); in the experiment with HL-60, 26.4 µM (inactive). Also, the GI50 was 17 µM (inactive) in the experiment on U-251; 14.4 µM (inactive) with MCF7; 33.4 µM (inactive) in the experiment with COLO 205; 17.5 µM (inactive) with K562; 15.5 µM (inactive) with RPMI-8226; 9.33 µM (inactive) in the experiment with LOX IMVI. Moreover, the GI50 in the experiment with OVCAR-4 was 13.7 µM (inactive).

As for `CC(O)(c1ccccc1)c1nccc2ccccc12` (stereo not drawn), the GI50 in the experiment on MDA-N was 23.4 µM (inactive); in the experiment with TK-10 it was > 100 µM (inactive); in the experiment with HCT-15 it was 53 µM; in the experiment with CAKI-1, > 100 µM (inactive); in the experiment with A498 it was 71.4 µM (inactive); in the experiment on MOLT-4, 41.9 µM (inactive). Moreover, the GI50 was > 100 µM (inactive) in the experiment with UACC-257; 36.4 µM (inactive) with KM12; 51.3 µM (inactive) in the experiment on UO-31; > 100 µM (inactive) with SNB-19; 50.5 µM (inactive) with NCI-H522; > 100 µM (inactive) in the experiment with HL-60. For the same molecule, the GI50 in the experiment with U-251 is 45.5 µM (inactive); with MCF7 it was 80.9 µM (inactive); in the experiment with COLO 205 it was 70.6 µM (inactive); in the experiment on K562 it was 35.8 µM (inactive); with RPMI-8226, 37.3 µM (inactive); with LOX IMVI it was 75.9 µM (inactive). The GI50 with OVCAR-4 was 37.7 µM (inactive).

With `COC1=CC(=O)c2nc3ccccc3c3ccnc1c23`, the GI50 is 0.448 µM (active) with MDA-N; 19.3 µM (inactive) in the experiment with TK-10; 0.721 µM in the experiment on HCT-15; 1.56 µM (inactive) in the experiment with SR; 14.3 µM (inactive) in the experiment with CAKI-1; 4.01 µM (inactive) in the experiment on MOLT-4. The GI50 with UACC-257 is 5.16 µM (inactive); in the experiment with KM12, 4.04 µM (inactive); in the experiment on UO-31, 4.35 µM (inactive); in the experiment with SNB-19 it was 12.4 µM (inactive); in the experiment on NCI-H522, 2.22 µM (inactive); with HL-60 it was 2.38 µM (inactive). For the same molecule, the GI50 in the experiment with U-251 was 5.05 µM (inactive); with MCF7 it was 1.95 µM (inactive); in the experiment on COLO 205, 6.64 µM (inactive); in the experiment with K562, 3.37 µM (inactive); with RPMI-8226, 1.83 µM (inactive); in the experiment with LOX IMVI, 0.565 µM (active). Moreover, the GI50 in the experiment on OVCAR-4 was 4.89 µM (inactive).

`C=C1C(=O)C2(C)OC2(C)C1C(=O)O` (stereo not drawn): the GI50 in the experiment with MDA-N was > 100 µM (inactive); in the experiment with TK-10 it was > 100 µM (inactive); in the experiment on HCT-15, over 100 µM; in the experiment with SR it was > 100 µM (inactive); in the experiment with CAKI-1, > 100 µM (inactive); with UACC-257 it was > 100 µM (inactive). Also, the GI50 in the experiment on KM12, in the experiment with UO-31, in the experiment with SNB-19, in the experiment on NCI-H522, in the experiment with HL-60 and with U-251 was > 100 µM (inactive) each time. Moreover, the GI50 in the experiment with MCF7, with COLO 205, with K562, with RPMI-8226, with LOX IMVI and in the experiment on OVCAR-4 was > 100 µM (inactive) each time.

As to `CSc1nc(Cl)c2c(n1)Sc1nc3ccccc3n1C2O` (stereo not drawn), the GI50 was 2.86 µM (inactive) with MDA-N; 7.13 µM (inactive) in the experiment on TK-10; 3.4 µM in the experiment on HCT-15; 1.85 µM (inactive) in the experiment with CAKI-1; > 79.1 µM (inactive) with A498; 3.48 µM (inactive) in the experiment on MOLT-4. Also, the GI50 was 13.5 µM (inactive) in the experiment on UACC-257; 3.44 µM (inactive) in the experiment with KM12; 3.44 µM (inactive) in the experiment on UO-31; 14.4 µM (inactive) with SNB-19; 2.73 µM (inactive) in the experiment on NCI-H522; 3.67 µM (inactive) in the experiment with U-251. In addition, the GI50 is 4.02 µM (inactive) in the experiment on MCF7; 2.64 µM (inactive) in the experiment on COLO 205; 3.71 µM (inactive) in the experiment on K562; 2.85 µM (inactive) in the experiment with RPMI-8226; 0.861 µM (active) with LOX IMVI; 17.2 µM (inactive) in the experiment on OVCAR-4.

As for `CCC/C(Cl)=N\OC(=O)Nc1ccc(OC(F)(F)F)cc1`, the GI50 is 13.5 µM (inactive) in the experiment with MDA-N; 3.3 µM (inactive) in the experiment on TK-10; 2.42 µM in the experiment with HCT-15; 1.66 µM (inactive) with CAKI-1; 23.8 µM (inactive) in the experiment with A498; 1.86 µM (inactive) in the experiment with MOLT-4. Moreover, the GI50 in the experiment with UACC-257 was 19.6 µM (inactive); in the experiment on KM12, 9.48 µM (inactive); in the experiment with UO-31, 8.53 µM (inactive); in the experiment on SNB-19, 30.3 µM (inactive); in the experiment on NCI-H522 it was 1.08 µM (active); with HL-60, 3.25 µM (inactive). Besides, the GI50 is 27 µM (inactive) in the experiment with U-251; 8.26 µM (inactive) in the experiment on MCF7; 1.82 µM (inactive) in the experiment with COLO 205; 2.42 µM (inactive) in the experiment on K562; 2.11 µM (inactive) in the experiment on RPMI-8226; 2.72 µM (inactive) in the experiment with LOX IMVI. Moreover, the GI50 in the experiment with OVCAR-4 is 18.6 µM (inactive).

For the molecule `COC(=O)Cc1c(C2C(CC(=O)OC)c3ccccc3N2C2OC(CO)C(O)C(O)C2O)[nH]c2ccccc12` (stereo not drawn), the GI50 was > 100 µM (inactive) in the experiment on MDA-N; > 100 µM (inactive) in the experiment on TK-10; over 100 µM with HCT-15; > 100 µM (inactive) with SR; > 100 µM (inactive) in the experiment on CAKI-1; > 100 µM (inactive) in the experiment with A498. Also, the GI50 in the experiment on MOLT-4, in the experiment with UACC-257, in the experiment with KM12, in the experiment on UO-31, with SNB-19 and with NCI-H522 was > 100 µM (inactive) throughout. Besides, the GI50 in the experiment with U-251, in the experiment with COLO 205, in the experiment with RPMI-8226 and with OVCAR-4 was > 100 µM (inactive) throughout.

Regarding `CCCc1c(O)nc(Nc2nc3ccccc3[nH]2)[nH]c1=O`, the GI50 was > 100 µM (inactive) with MDA-N; > 100 µM (inactive) in the experiment with TK-10; over 100 µM in the experiment with HCT-15; > 100 µM (inactive) in the experiment on SR; > 100 µM (inactive) in the experiment on CAKI-1; > 100 µM (inactive) with A498. For the same molecule, the GI50 in the experiment on MOLT-4 was > 100 µM (inactive); in the experiment with UACC-257 it was > 100 µM (inactive); in the experiment with KM12 it was > 100 µM (inactive); in the experiment on UO-31, > 100 µM (inactive); in the experiment on SNB-19, > 100 µM (inactive); in the experiment with NCI-H522, 71.3 µM (inactive). In addition, the GI50 in the experiment with HL-60 was 84.9 µM (inactive); in the experiment with U-251, > 100 µM (inactive); with COLO 205, > 100 µM (inactive); in the experiment with K562, > 100 µM (inactive); in the experiment with RPMI-8226 it was > 100 µM (inactive); with OVCAR-4, > 100 µM (inactive).

With `CC1(C)N=C(N)N=C(N)N1c1cccc(OCc2cccc([N+](=O)[O-])c2)c1`, the GI50 in the experiment with MDA-N is 3.29 µM (inactive); with TK-10 it was 18.7 µM (inactive); in the experiment on HCT-15 it was over 100 µM; in the experiment on CAKI-1, > 100 µM (inactive); in the experiment with A498, 99.5 µM (inactive); with MOLT-4, 1.22 µM (inactive). The GI50 in the experiment on UACC-257 was 4.29 µM (inactive); in the experiment with KM12, 17.1 µM (inactive); in the experiment on UO-31, > 100 µM (inactive); in the experiment on SNB-19, 11.5 µM (inactive); in the experiment on NCI-H522 it was 8.91 µM (inactive); with HL-60, 9.95 µM (inactive). Also, the GI50 in the experiment with U-251 is 2.88 µM (inactive); in the experiment with MCF7, 34.1 µM (inactive); in the experiment on COLO 205, 9.93 µM (inactive); in the experiment on K562, 0.75 µM (active); in the experiment on RPMI-8226, 32.7 µM (inactive); in the experiment with LOX IMVI, 9.27 µM (inactive). For the same molecule, the GI50 in the experiment with OVCAR-4 was 39.6 µM (inactive).

Turning to `Cc1cc2cc3c(cc2c(-c2ccc(N)cc2)n1)OCO3`, the GI50 was 23.3 µM (inactive) with MDA-N; 39.9 µM (inactive) in the experiment with TK-10; 53 µM in the experiment on HCT-15; 15.6 µM (inactive) in the experiment on SR; 26.5 µM (inactive) in the experiment on CAKI-1; 13.8 µM (inactive) in the experiment on MOLT-4. Further, the GI50 in the experiment with UACC-257 is > 100 µM (inactive); in the experiment on KM12, 38.9 µM (inactive); with UO-31 it was 29.2 µM (inactive); in the experiment with SNB-19, > 100 µM (inactive); in the experiment on NCI-H522, 42.5 µM (inactive); in the experiment on HL-60, 12 µM (inactive). The GI50 in the experiment on U-251 is 62.5 µM (inactive); in the experiment with MCF7, 7.74 µM (inactive); with COLO 205, 26.8 µM (inactive); in the experiment on K562 it was 23.1 µM (inactive); in the experiment on RPMI-8226 it was 23.8 µM (inactive).
